One compound from article PMC6934184, “Selective DNA-PKcs inhibition extends the therapeutic index of localized radiotherapy and chemotherapy” (The Journal of Clinical Investigation, 2019) can be followed below.

The structures appear in SMILES notation.

This assay deals with T1, MAP4K4 (HGK) (Homo sapiens, UniProt O95819).
T1 construct: purchased Thermo Fisher Scientific (Life Technologies) SelectScreen
The assay is described as follows: SelectScreen Z'LYTE. Type of assay: biochemical. A digest of the protocol: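 NU5455 was profiled across the SelectScreen Broad panel of kinase activity and binding assays. Z'LYTE reactions such as CSF1R ran at apparent Km ATP, while the Adapta CAMK1 assay used ATP listed as 10. Values are given as percent.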

T1 sequence (O95819 whole entry): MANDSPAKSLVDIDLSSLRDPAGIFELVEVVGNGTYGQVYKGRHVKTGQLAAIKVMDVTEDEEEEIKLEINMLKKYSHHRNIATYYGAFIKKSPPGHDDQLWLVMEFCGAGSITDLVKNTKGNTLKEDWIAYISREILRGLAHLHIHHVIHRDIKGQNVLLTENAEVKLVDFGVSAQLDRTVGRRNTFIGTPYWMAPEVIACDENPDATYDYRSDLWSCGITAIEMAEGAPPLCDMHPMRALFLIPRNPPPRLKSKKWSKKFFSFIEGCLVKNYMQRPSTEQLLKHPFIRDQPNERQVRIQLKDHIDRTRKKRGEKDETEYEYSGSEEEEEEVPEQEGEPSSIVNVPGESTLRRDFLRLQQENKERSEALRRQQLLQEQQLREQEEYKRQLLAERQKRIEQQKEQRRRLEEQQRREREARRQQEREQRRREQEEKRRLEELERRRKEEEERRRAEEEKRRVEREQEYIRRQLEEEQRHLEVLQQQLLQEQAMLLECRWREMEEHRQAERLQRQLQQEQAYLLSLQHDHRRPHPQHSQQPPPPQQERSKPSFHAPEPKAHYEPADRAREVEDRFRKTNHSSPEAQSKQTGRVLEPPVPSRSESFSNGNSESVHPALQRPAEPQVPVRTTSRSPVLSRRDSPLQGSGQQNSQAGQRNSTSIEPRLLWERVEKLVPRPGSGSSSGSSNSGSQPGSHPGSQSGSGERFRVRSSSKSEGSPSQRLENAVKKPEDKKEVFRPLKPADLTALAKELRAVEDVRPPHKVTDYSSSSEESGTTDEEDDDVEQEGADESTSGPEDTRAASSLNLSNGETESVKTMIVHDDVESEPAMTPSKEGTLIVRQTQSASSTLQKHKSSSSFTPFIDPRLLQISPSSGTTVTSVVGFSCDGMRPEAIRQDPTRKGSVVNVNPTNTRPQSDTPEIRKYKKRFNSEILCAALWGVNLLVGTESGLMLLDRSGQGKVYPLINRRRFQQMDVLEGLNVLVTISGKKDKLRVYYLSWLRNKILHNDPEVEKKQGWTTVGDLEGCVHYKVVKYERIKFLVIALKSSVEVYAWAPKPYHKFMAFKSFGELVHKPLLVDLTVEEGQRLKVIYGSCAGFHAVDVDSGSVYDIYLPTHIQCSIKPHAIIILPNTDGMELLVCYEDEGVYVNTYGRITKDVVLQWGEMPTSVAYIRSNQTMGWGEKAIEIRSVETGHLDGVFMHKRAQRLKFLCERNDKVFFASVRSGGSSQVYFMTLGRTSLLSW

For the compound `CN(C(=O)CN1CCOCC1)c1ccc2sc3c(-c4cccc5c(=O)cc(N6CC7CCC(C6)O7)oc45)cccc3c2c1` [NU5455], the inhibition (commonly the drop in the measured response relative to a control, in per cent) at 1 µM was -5.6%.
